In PMC10928712, “High Target Homology Does Not Guarantee Inhibition: Aminothiazoles Emerge as Inhibitors of Plasmodium falciparum” (ACS Infectious Diseases, 2024):
In brackets after ≈: the same amount, converted by molar mass. Like-named read-outs stand apart in the source and are kept apart here.

Key:
P. falciparum W2 = tested on: P. falciparum W2; design: method as in earlier work; settings: Novartis HTS 2008; ref (21); cited from earlier work
[1] = tested on: Huh7 (human hepatoma cells); settings: cited from earlier work
P. falciparum 3D7 [2] = tested on: P. falciparum 3D7; design: method as in earlier work; settings: Novartis HTS 2008; ref (21); cited from earlier work
P. falciparum 3D7 [3] = assay: Method I growth-inhibition assay (SYBR Green I, 96 h); assay type: cell-based; settings: Plasmodium falciparum
Description: Nonlinear regression as implemented in GraphPad Prism 7.00 (log(inhibitor) vs response – variable slope (four parameters)) was used to fit the measured data to interpolate the IC50 value from the curve. No specific model was applied. Data was preprocessed by normalizing according to the following formula: […]
(§1) eq 1: Fluorescence data normalization [drawing 2] where y is the fluorescence signal in each well, yminimum is the background fluorescence, and ymaximum is the highest measured fluorescence signal in the untreated wells. Drug concentrations (in μM) were transformed to the log(10)of the values. Means of each independent experiment were plotted as individual values, and the SD of the mean from the means shown as error bars. […] In case of transgenic cell lines, the built-in comparison Akaike’s information criteria (AICc) method was applied to the Log IC50s of the different cell lines. The test calculates a percentage probability of the simpler model “Log IC50 is the same for datasets” being correct. The test for homoscedasticity was performed to confirm if no weighting of values was appropriate.

P. falciparum Dd2 = assay: Method III growth inhibition assay (HRP2-ELISA, 3 days), Dd2; assay type: cell-based, Plasmodium falciparum; settings: Plasmodium falciparum, DD2, chloroquine-resistant Dd2, method III
P. falciparum 3D7 [4] = assay: Method III growth inhibition assay (HRP2-ELISA, 3 days), 3D7; assay type: cell-based, Plasmodium falciparum
[5] = tested on: P. falciparum 3D7 MOCK cell line; assay: Growth inhibition of MOCK cell line (vector backbone only); assay type: cell-based; settings: Plasmodium falciparum, 95% CI in brackets
Description: (§2) The open reading frame (ORF) encoding 1-deoxy-D-xylulose-5-phosphate synthase (PfDXPS; PF3D7_1337200) was amplified from genomic DNA isolated from unsynchronized P. falciparum 3D7 cultures using the Platinum PCR SuperMix High Fidelity (Invitrogen). Forward and reverse primers contained restriction sites for KpnI and AvrII in sense and antisense orientation, respectively (oligonucleotides pfDXPS-Kpn1-S: […]; pfDXPSmyc-Avr2-AS: […] ). PCR products and the transfection vector pARL1a-hDHFR PfARG-GFP were digested with KpnI and AvrII, purified (Gel extraction Kit and PCR purification kit; Qiagen), and cloned into the transfection vector yielding the construct for overexpression pARL-DXS-strep. XL 10-Gold E. coli ultracompetent cells (Agilent Technologies) were transformed with the generated construct to amplify the plasmid and colonies checked using restriction analysis and sequencing of the plasmid. Bacterial clones carrying the overexpression construct and the empty pARL1a vector (MOCK plasmid) were amplified in overnight cultures, isolated (Plasmid Maxi Kit; QIAGEN), and subsequently used to transfect P. falciparum 3D7 ring-stage parasites, as already described.[59] Briefly, 120 μg of plasmid DNA was centrifuged and air-dried, and the pellet was resuspended in TE buffer and cytomix reagent and mixed with the P. falciparum culture. Parasites were transfected using electroporation and selected with WR 99210. The generation and characterization of the PfTPK overexpression cell line has been reported before.[60]
(§3) P. falciparum cultures were treated as described in method I. For target specification toward PfTPK and PfDXPS, compounds were tested in comparison against overexpressing cell lines and the respective MOCK line containing only the transfected vector backbone. Parasite viability/proliferation was determined.

[6] = tested on: blood-stage P. falciparum 3D7; settings: Plasmodium falciparum
[7] = Metabolic stability in human liver S9 fraction; assay type: in vitro ADME; settings: 1 μM compound; for half-life at 1 μM: human, pooled liver S9 fraction
Protocol: For the evaluation of combined phase I and phase II metabolic stability, the compound (1 μM) was incubated with 1 mg/mL pooled liver S9 fraction (XenoTech), 2 mM NADPH, 1 mM UDPGA, 10 mM MgCl2, 5 mM GSH, and 0.1 mM PAPS at 37 °C for 0, 5, 15, 30, and 60 min. The metabolic stabilities of testosterone (1 μM), verapamil (1 μM), and propranolol (1 μM) were determined in parallel to confirm the enzymatic activity of the S9 fraction. The incubation was stopped by precipitation of S9 enzymes with two volumes of cold acetonitrile containing internal standard (150 nM diphenhydramine). Samples were stored on ice for 10 min, and precipitated protein was removed by centrifugation (15 min, 4 °C, 4000 rpm). The concentration of the remaining test compound at the different time points was analyzed by LC-MS/MS (TSQ Quantum Access MAX, Thermo Fisher, Dreieich, Germany) and used to determine half-life (t1/2).

P. falciparum NF54 [8] = assay: Method II growth-inhibition assay (PicoGreen, 3 days), NF54; assay type: cell-based; settings: Plasmodium falciparum; chloroquine-sensitive NF54, method II
Description: (§4) Fidock (Columbia University).

[9] = tested on: Mycobacterium tuberculosis H37Rv strain; design: method as in PMID 36320685; settings: cited from earlier work
[10] = Kinetic solubility determination; assay type: physicochemical; settings: PBS buffer and 2% DMSO; for solubility at 5 min: PBS with 2% DMSO, aqueous buffer, kinetic from dmso stock, read-out: Max. solubility
Protocol: The desired compounds were sequentially diluted in DMSO in a 96-well plate. 3 μL of each well was transferred into another 96-well plate and mixed with 147 μL of PBS. Plates were shaken for 5 min at 600 rpm at room temperature (r.t.), and the absorbance at 620 nm was measured. Absorbance values were normalized by blank subtraction and plotted using GraphPad Prism 8.4.2 (GraphPad Software, San Diego, California, USA). Solubility (S) was determined based on the First X value of AUC function using a threshold of 0.005.

P. falciparum 3D7-DXPS+ = assay: Growth inhibition of PfDXPS overexpressing parasites (3D7-DXPS+); assay type: cell-based; settings: Plasmodium falciparum, 3D7, read-out: PfDXPS IC50
Description: as §2, §3

Hep G2 cells = assay: Hep G2 viability assay (counter screen); assay type: cell-based, human; settings: for IC50: Homo sapiens, HepG2, 48 h, cytotoxicity, 48 h
Protocol: HepG2 cells (2 × 10^5 cells per well) were seeded in 24-well, flat-bottomed plates. Culturing of cells, incubations, and OD measurements were performed as described previously with small modifications.[58] 24 h after seeding the cells, the incubation was started by the addition of compounds in a final DMSO concentration of 1%. The metabolic activity of the living cell mass was determined after 48 h. At least three independent measurements were performed for each compound. The IC50 values were determined during logarithmic growth using GraphPad Prism software. All experiments were performed at least in triplicate, and data reported represent the mean ± SD.

M. tuberculosis DXPS = biological target: M. tuberculosis DXPS; design: method as in PMID 36320685; settings: Morrison inhibition constant, slow-, tight-binding; read-out: Ki* MtDXPS; cited from earlier work
P. falciparum 3D7 [11] = assay: Method II growth-inhibition assay (PicoGreen, 3 days), 3D7; assay type: cell-based; settings: Plasmodium falciparum, 3D7, method II
Description: as §4

P. falciparum 3D7-TPK+ = assay: Growth inhibition of PfTPK overexpressing parasites (3D7-TPK+); assay type: cell-based; settings: Plasmodium falciparum, 3D7, read-out: PfTPK IC50
Protocol: as §3, with “determined. Analysis of the IC50 values and interpretation of the curves was performed, as described in Section 4.1.2.44.” for “determined.”
as §1

P. falciparum 3D7 [12] = assay: IDP rescue assay, P. falciparum 3D7; assay type: cell-based; settings: Plasmodium falciparum
Protocol: (§5) Fidock (Columbia University). […] P. falciparum cultures were treated as described in method II. For IDP (Isoprenoids.com) rescue experiments, 125 μM IDP was added to the appropriate wells for the duration of the experiment. The well-described DXR inhibitor FSM was used as a positive control. IC50 values were calculated by nonlinear regression analysis using GraphPad Prism software. All experiments were performed at least in triplicate, and data reported represent the mean ± SD.

P. falciparum NF54 [13] = assay: IDP rescue assay, P. falciparum NF54; assay type: cell-based; settings: Plasmodium falciparum
Protocol: as §5

[14] = 3D7, read-out: MOCK IC50, MOCK compared with 3D7-DXPS+
[15] = 3D7, read-out: MOCK IC50, MOCK compared with 3D7-TPK+, single measurement
[16] = 3D7, method III (HRP2 assay), drc package of R, read-out: IC50 P. falciparum 3D7 (method III)
[17] = Plasmodium falciparum, 3D7, 3D7, method III (HRP2 assay), drc package of R, read-out: IC50 P. falciparum 3D7 (method III)
[18] = Plasmodium falciparum, 3D7, 3D7, method III, nonlinear regression as in Figure 2, 95% CI in brackets, read-out: IC50 C
[19] = 95% CI in brackets, read-out: IC50 B
[20] = Plasmodium falciparum, 3D7, table of compounds as SMILES with biological activity, strain not given, values match 3D7 method III, read-out: IC50

Compound	IC50 (P. falciparum Dd2) [µM]	half-life at 1 μM [7] [min]	IC50 (P. falciparum NF54 [8]) [µM]	solubility at 5 min [10] [µM]	IC50 (Hep G2 cells) [µM]	IC50 (P. falciparum 3D7 [4]; [16]) [nM]	IC50 (P. falciparum 3D7 [4]; [17]) [nM]	IC50 (P. falciparum 3D7 [11]; read-out: IC50 3D7-II) [µM]	other results
COC(C(=NO)c1ccc(Cl)cc1)c1ccccc1 (centres unmarked) [CHEMBL581471]	–	–	–	–	–	–	–	–	EC50 (P. falciparum W2): > 1.61 µM; Huh7 inhibition [1]: > 10 µM; EC50 (P. falciparum 3D7 [2]): > 0.912 µM
CCN(CC)CCCC(C)Nc1ccnc2cc(Cl)ccc12 (centres unmarked) [Chloroquine, chloroquine diphosphate, reference compound]	0.19 ± 0.03	–	–	–	–	–	–	–	IC50 (P. falciparum 3D7 [3]; 3D7, method I, nM, read-out: IC50 3D7-I): 17.8 ± 3.1 nM; IC50 (P. falciparum 3D7 [4]; Plasmodium falciparum, 3D7, 3D7, method III, nM, read-out: IC50 3D7-III): 2.8 ± 0.7 nM
ON=C(Cc1ccc(Cl)cc1)c1ccc(O)cc1O [compound 2]	89 ± 31	28	41 ± 10	114 ± 6.7 (≈ 31.7 µg/mL)	> 50	94000 ± 8000	93800 ± 8000	42 ± 4	IC50 [5, 14]: 110 µM; IC50 [5, 15]: 90.4 µM; IC50 (P. falciparum 3D7 [3]; 3D7, read-out: IC50 3D7-I): 81000 ± 3000 nM; IC50 (P. falciparum 3D7 [3]; 3D7, read-out: IC50 A [μM]): 74200 nM; IC50 [6]: 44 to 74 µM; t1/2 [7]: 29 ± 0.7 min; MIC [9]: 10 µM (≈ 2.78 µg/mL); IC50 (P. falciparum 3D7-DXPS+): 110 µM; IC50 (P. falciparum 3D7 [4]; [18]): ~46000 nM; Ki (M. tuberculosis DXPS): 0.27 ± 0.02 µM; IC50 (P. falciparum 3D7 [11]; [19]): 43.8 µM; IC50 (P. falciparum 3D7-TPK+): 90.4 µM
OCc1cn(Cc2ccc(Cl)c(Cl)c2)c2ccccc12 [compound 3]	13 ± 9	10 ± 0.4	15 ± 2	–	0.8 ± 0.2	24000 ± 6000	23600 ± 6400	17 ± 2	IC50 [5, 14]: 17.9 µM; IC50 [5, 15]: 23.8 µM; IC50 (P. falciparum 3D7 [3]; 3D7, read-out: IC50 3D7-I): 25000 ± 3000 nM; IC50 (P. falciparum 3D7 [3]; 3D7, read-out: IC50 A [μM]): 21400 nM; IC50 [6]: 8 to 21 µM; MIC [9]: 10 µM (≈ 3.06 µg/mL); IC50 (P. falciparum 3D7-DXPS+): 17.9 µM; IC50 (P. falciparum 3D7 [4]; [18]): 7900 nM; Ki (M. tuberculosis DXPS): 1.29 ± 0.2 µM; IC50 (P. falciparum 3D7 [11]; [19]): 17.1 µM; IC50 (P. falciparum 3D7-TPK+): 21.1 µM
COc1cc(O)ccc1/C(Cc1ccc(N)cc1)=N/O [compound 4, (E)-2-(4-Aminophenyl)-1-(4-hydroxy-2-methoxyphenyl)ethan-1-one oxime]	94 ± 16	–	–	~200 (≈ 54.5 µg/mL)	–	–	> 111000	–	Max. solubility [10]: 202.6 ± 1.6 µM
Nc1ccc(C/C(=N\O)c2ccc(O)cc2O)cc1 [compound 5, (E)-2-(4-Aminophenyl)-1-(2,4-dihydroxyphenyl)ethan-1-one oxime]	> 111	–	–	~200 (≈ 51.7 µg/mL)	–	–	> 111000	–	Max. solubility [10]: 193.6 ± 95.7 µM
COc1ccc(/C(Cc2ccc(N)cc2)=N/O)c(OC)c1 [compound 6, (E)-2-(4-Aminophenyl)-1-(2,4-dimethoxyphenyl)ethan-1-one oxime]	> 111	–	–	119 ± 27.4 (≈ 34.2 µg/mL)	–	–	> 111000	–	–
Nc1ccc(C(Cc2ccc(Cl)cc2)=NO)c(O)c1 [compound 10]	24 ± 4	56 ± 0.4	–	–	50 to 100	–	38000 ± 11000	–	IC50 (P. falciparum 3D7 [4]; [20]): 38200 nM
Oc1ccc(C(O)Cc2ccc(Cl)cc2)c(O)c1 (centres unmarked) [compound 13, 4-(2-(4-Chlorophenyl)-1-hydroxyethyl)benzene-1,3-diol]	28 ± 13	98 ± 10	–	–	> 100	10000 ± 2000	9900 ± 1700	–	cytotoxicity towards Hep G2 cells (Hep G2 cells; at 100 μM): no cytotoxicity
OCc1cn(Cc2ccc(Cl)c(Cl)c2)c2cccc(F)c12 [compound 33, (1-(3,4-Dichlorobenzyl)-4-fluoro-1H-indol-3-yl)methanol]	3	–	3 ± 1	–	0.79 ± 0.37	2000	3000	3	IC50 (P. falciparum 3D7 [4]; [20]): 2400 nM; IC50 (P. falciparum 3D7 [12]; 3D7, 72 h, + IDP (125 μM)): 3.1 µM; IC50 (P. falciparum 3D7 [12]; 3D7, without IDP): 2.7 ± 0.3 µM; IC50 (P. falciparum NF54 [13]; NF54, 72 h, + IDP (125 μM)): 2.2 µM; IC50 (P. falciparum NF54 [13]; NF54, without IDP): 2.4 ± 0.6 µM
